Test: Inhibition of 5alpha reductase from human prostatic hyperplasia

IC50 [µM]	Structure (SMILES)
0.01	CC(C)(C)NC(=O)[C@H]1CC[C@H]2[C@@H]3CC[C@H]4NC(=O)C=C[C@]4(C)[C@H]3CC[C@]12C [FINASTERIDE]
22	O=C(O[C@H]1[C@@H]2OC(=O)c3cc(O)c(O)c(O)c3-c3c4cc(c(O)c3O)Oc3c(cc(O)c(O)c3O)C(=O)O[C@H]3C(O)O[C@@H]5COC(=O)c6cc(O)c(O)c(O)c6-c6c(cc(c(O)c6O)Oc6c(cc(O)c(O)c6O)C(=O)O[C@H]1C(O)O[C@@H]2COC4=O)C(=O)O[C@H]5[C@@H]3OC(=O)c1cc(O)c(O)c(O)c1)c1cc(O)c(O)c(O)c1 (some centres not stated) [OENOTHEIN B]
